Source: ChEMBL document CHEMBL4130459, “3,5-Dimethylorsellinic Acid Derived Meroterpenoids from Penicillium chrysogenum MT-12, an Endophytic Fungus Isolated from Huperzia serrata” (J Nat Prod, 2017)

How the values were obtained:
[1] = tested on: RAW264.7; assay: Inhibition of LPS-induced nitric oxide production in mouse RAW264.7 cells at 80 uM after 24 hrs by Griess assay relative to control; type: functional; conditions: RAW264.7, 24 h
[2] = tested on: RAW264.7; assay: Inhibition of LPS-induced nitric oxide production in mouse RAW264.7 cells after 24 hrs by Griess assay; type: functional, cell-based; conditions: RAW264.7, 24 h
[3] = tested on: RAW264.7; assay: Cytotoxicity against mouse RAW264.7 cells by MTT assay; type: cell-based

IC50 [2] | Compound | inhibition at 80 µM [1] | Activity [3]
 | C=C1[C@@]2(C)C[C@@H]3[C@](C)(CC=C4C(C)(C)OC(=O)CC[C@]43C)[C@]1(C(=O)OC)C(=O)[C@@](C)(O)C2=O [BERKELEYONE B] | < 50% | 
 | COC(=O)[C@]12C[C@@](C)(O)C(=O)[C@](C)(C[C@H]3C(C)=C4CC(=O)OC(C)(C)C4=CC[C@@]31C)[C@]21CO1 | < 50% | 
 | COC(=O)[C@]1(C)O[C@H]2OC(=O)[C@@H]3[C@H]2[C@@](C)(C[C@H]2C(C)=C4CC(=O)OC(C)(C)C4=CC[C@]32C)C1=O | < 50% | 
78.2 µM | COC(=O)[C@]12C(=O)[C@@H](C)O[C@@H]3OC(=O)[C@](C)(C[C@@H]4[C@]1(C)CC=C1C(=CC(=O)OC1(C)C)[C@@]4(C)O)[C@@H]32 |  | Non-Toxic
 | C[C@H]1OC(=O)[C@@]23[C@@H]4[C@H]5OC(=O)[C@]4(C)C[C@@H]4[C@]2(C)[C@H](C=C2C(=CC(=O)OC2(C)C)[C@@]42CO2)O[C@@]13O5 | < 50% | 
 | C[C@H]1O[C@@H]2OC(=O)[C@]3(C)C[C@@H]4[C@@]5(C)C(=C1O[C@H]5C=C1C(=CC(=O)OC1(C)C)[C@@]41CO1)[C@H]23 | < 50% | 
 | COC(=O)[C@]12C(=O)[C@H](C)O[C@@H]3OC(=O)[C@](C)(C[C@H]4[C@]5(CO5)C5=CC(=O)OC(C)(C)C5=CC[C@@]41C)[C@@H]32 [BERKELEYACETAL B] | < 50% | 
 | C=C1[C@@]2(C)C[C@H]3C(C)=C4CC(=O)OC(C)(C)C4=CC[C@]3(C)[C@]1(C(=O)OC)C(=O)[C@@](C)(O)C2=O [BERKELEYDIONE] | < 50% | 
24 µM | C[C@H]1O[C@@H]2OC(=O)[C@]3(C)C[C@@H]4[C@@]5(C)C(=C1O[C@H]5C=C1C(=CC(=O)OC1(C)C)[C@@]41CO1)[C@]23O |  | Non-Toxic
 | COC(=O)[C@]12C(=O)[C@@H](C)O[C@@H]3OC(=O)[C@](C)(C[C@H]4C(C)=C5CC(=O)OC(C)(C)C5=CC[C@@]41C)[C@@H]32 | < 50% | 
 | COC(=O)[C@]12C(=O)[C@@H](C)O[C@@H]3OC(=O)[C@](C)(C[C@H]4[C@]5(CO5)C5=CC(=O)OC(C)(C)[C@]56O[C@@H]6C[C@@]41C)[C@@H]32 | < 50% | 
33.6 µM | COc1ccc2c(c1)c(CC(=O)O)c(C)n2C(=O)c1ccc(Cl)cc1 [INDOMETHACIN] |  | 
12.7 µM | C[C@@H]1O[C@H]2OC(=O)[C@@]3(C)C[C@H]4[C@@](C)(C(=O)C=C5C(=CC(=O)OC5(C)C)[C@]45CO5)[C@@H](C1=O)[C@@]23O |  | Non-Toxic

Compound | IC50 [2] | inhibition at 80 µM [1] | Activity [3]
C[C@@H]1O[C@@H]2OC(=O)[C@]3(C)C[C@@H]4[C@](C)(C(=O)C=C5C(=CC(=O)OC5(C)C)[C@@]45CO5)[C@H](C1=O)[C@H]23 [BERKELEYACETAL C] | 4.3 µM |  | Non-Toxic
